The text below walks through data of patent publication US5827562A, “Sweetener salts” (Holland Sweetener Company V.o.F., priority 1995, dated 1998).

Several values for one entry are separate records, joined by “and”; a condition that tells them apart may be missing. Equal entries are not always repeated. Structures can show the parent of a compound that is named as a salt. Where two headings read alike, the source gives them in different places. Peptide text beside a SMILES is read from it.

Data set [1] can be described thus: Thermal stability test: open dish in thermostatted oven, decomposition products (DKP, AP) by hplc. The settings on record: for DKP content: initial content, relative to dry product. Format: physicochemical. Here is the method: d. Thermal stability tests were conducted by allowing samples of a relevant product to stand for the indicated times in an open dish placed in a thermostatted oven at the relevant temperature, and to determine, via hplc, the concentrations of possible decomposition products such as, in the case of analysis of aspartame salts, diketopiperazine (DKP) and aspartyl-phenylalanine (AP) in the initial and the final sample.
(§1) A number of the products obtained in the above-mentioned experiments and comparative experiments were subjected to further analysis of characterization. The following values were determined: (a) thermal stability (at 70° C. and/or at 120° C.) and (b) dissolution rate. By way of comparison the same was done for a number of reference substances. As regards the thermal stability of the APM containing substances, attention was paid in particular to the increase in the diketopiperazine decomposition product (DKP) in wt.% relative to the dry product.

The nature of data set [2]: Dissolution rate, spectrophotometric dissolution curve in pH 5.0 buffer. Format: physicochemical. The conditions noted are these: 23° C. The protocol:
c. The dissolution rate was found through spectrophotometric determination of the dissolution curve, by introducing 0.1 wt.% of the product (or a screen fraction thereof at 23° C. into a pH 5.0 buffer (Merck titrisol, pH 5.0, in 1 liter of Milli-Q water) whilst stirring continuously.
as §1, with “product. It was also established that the salts included in the table are not hygroscopic.” for “product.”

Data set [3] can be described thus: Moisture content, Karl-Fischer water determination. Format: physicochemical. The settings on record: dried product. The protocol:
b. The moisture content of the products obtained was determined by means of the Karl-Fischer water determination.

The conditions of data set [4]: general statement, aspartame or its derivatives; cited from earlier work.
The conditions of data set [5]: usual moisture content of the individual component; cited from earlier work.
A further data set is described as follows: Solubility in water. Format: physicochemical. The conditions noted are these: aqueous reaction medium.

For the molecule `COC(=O)[C@H](Cc1ccccc1)NC(=O)[C@@H](N)CC(=O)O` [APM granulate, reference compound] (H-Asp-Phe-OMe), the “Increase in DKP content” value in data set [1] (1 hour, 120° C.) is 2.09 wt. %; in data set [1] (70 hours, 70° C.), 0.75 wt. %. Also, the DKP content in data set [1] is recorded as 0.18 wt. %. The Dissolution rate in data set [2] (200-700 μm fraction, 0.1 wt.%) was 7 min; in data set [2] (<200 μm fraction, 0.1 wt.%), 4 min. Moreover, in data set [3] (table 1), the moisture content worked out at 2.30 wt. %.

With `COC(=O)[C@H](Cc1ccccc1)NC(=O)[C@@H](N)CC(=O)O` [APM powder] (H-Asp-Phe-OMe), the “Increase in DKP content” value in data set [1] (1 hour, 120° C.) stood at 2.34 wt. %; in data set [1] (70 hours, 70° C.) it was 0.20 wt. %. For the same molecule, in data set [1], the DKP content was determined as 0.04 wt. %. In data set [2] (0.1 wt.% product, stirring), the Dissolution rate was in the range of 2 to 3 min. The moisture content in data set [3] (table 1) was determined as 2.60 wt. %.

As to `COC(=O)[C@H](Cc1ccccc1)NC(=O)[C@@H](N)CC(=O)O` [APM, Δ-L-aspartyl-L-phenylalanine methyl ester] (H-Asp-Phe-OMe), the thermal stability result in data set [4] is given as “relatively unfavorable thermal stability”.

In the case of `CC1=CC(=O)NS(=O)(=O)O1` [AceH], the “thermal stability, observation in words” value in data set [1] (1 hour, 120° C.) is “yellow/orange colour; strong degradation; hydrogen sulphide odour”.

Molecule `CC1=CC(=O)NS(=O)(=O)O1.COC(=O)[C@H](Cc1ccccc1)NC(=O)[C@@H](N)CC(=O)O` [Exp. 2k, 1:1 salt of APM and acesulfamic acid] (H-Asp-Phe-OMe) had a moisture content in data set [3] of 0.10%.

For `CC1=CC(=O)NS(=O)(=O)O1.COC(=O)[C@H](Cc1ccccc1)NC(=O)[C@@H](N)CC(=O)O` [Exp. 2l, 1:1 salt of APM and acesulfamic acid] (H-Asp-Phe-OMe), the moisture content in data set [3] is recorded as 0.07%.

Regarding `CC1=CC(=O)NS(=O)(=O)O1.COC(=O)[C@H](Cc1ccccc1)NC(=O)[C@@H](N)CC(=O)O` [Exp. 3a, 1:1 salt of APM and acesulfamic acid] (H-Asp-Phe-OMe), in data set [3], the moisture content was 2.5%.

The molecule `COC(=O)C(Cc1ccccc1)NC(=O)C(N)CC(=O)O.O=C1NS(=O)(=O)c2ccccc21` (stereo not drawn) [Exp. 3b, 1:1 salt of APM and saccharinate] (H-Asp-Phe-OMe; configuration not given here) displayed a moisture content in data set [3] of 0.27%.

Regarding `COC(=O)C(Cc1ccccc1)NC(=O)C(N)CC(=O)O.O=C1NS(=O)(=O)c2ccccc21` (stereo not drawn) [Exp. 4b., 1:1 salt of APM and saccharin] (H-Asp-Phe-OMe; configuration not given here), the moisture content in data set [3] is 0.04% and 0.05%.

`CC1=CC(=O)NS(=O)(=O)O1.COC(=O)[C@H](Cc1ccccc1)NC(=O)[C@@H](N)CC(=O)O` [Exp. 5a., 1:1 salt of APM and acesulfamic acid] (H-Asp-Phe-OMe) returned a moisture content in data set [3] of 0.09%.

In turn, `CC1=CC(=O)NS(=O)(=O)O1.COC(=O)[C@H](Cc1ccccc1)NC(=O)[C@@H](N)CC(=O)O` [Experiment 6, 1:1 salt of APM and acesulfamic acid] (H-Asp-Phe-OMe) yielded a moisture content in data set [3] of 0.15%.

As to `O=C1NS(=O)(=O)c2ccccc21` [SacH, 3-oxo-2,3-dihydro-1,2-benzisothiazole-1,1-dioxide], the “thermal stability, observation in words” value in data set [1] (1 hour, 120° C.) is given as “stable”.

Regarding `COC(=O)[C@H](Cc1ccccc1)NC(=O)[C@@H](N)CC(=O)O.O=C1NS(=O)(=O)c2ccccc21` [comp. exp. 1A, 1:1 salt of APM and SacH] (H-Asp-Phe-OMe), the “Increase in DKP content” value in data set [1] (70 hours, 70° C.) is 0 wt. %. Further, in data set [1], the DKP content is reported as 0.53 wt. %.

For `COC(=O)[C@H](Cc1ccccc1)NC(=O)[C@@H](N)CC(=O)O.O=C1NS(=O)(=O)c2ccccc21` [comp. exp. 1B, 1:1 salt of APM and SacH] (H-Asp-Phe-OMe), in data set [1] (70 hours, 70° C.), the “Increase in DKP content” value stood at 0 wt. %. In addition, in data set [1], the DKP content worked out at 0.21 wt. %.

As to `CC1=CC(=O)NS(=O)(=O)O1.COC(=O)[C@H](Cc1ccccc1)NC(=O)[C@@H](N)CC(=O)O` [comp. exp. 1C, 1:1 salt of APM and acesulfamic acid] (H-Asp-Phe-OMe), the “Increase in DKP content” value came to 2.04 wt. % in data set [1] (1 hour, 120° C.) and 1.27 wt. % in data set [1] (70 hours, 70° C.). Also, the “thermal stability, observation in words” value in data set [1] (1 hour, 120° C.) is reported as “yellow/yellowbrown colour, with some degradation of the Ace part”; in data set [1] (70 hours, 70° C.), “pale yellow; with hplc some degradation of the Ace part”. The molecule further yielded a DKP content in data set [1] of 0.35 wt. %. The moisture content in data set [3] worked out at 0.76%; in data set [3] (table 1), 0.76 wt. %.

For the molecule `CC1=CC(=O)NS(=O)(=O)O1.COC(=O)[C@H](Cc1ccccc1)NC(=O)[C@@H](N)CC(=O)O` [comp. exp. 1D, 1:1 salt of APM and acesulfamic acid] (H-Asp-Phe-OMe), the “Increase in DKP content” value amounted to 2.18 wt. % in data set [1] (1 hour, 120° C.) and 0.52 wt. % in data set [1] (70 hours, 70° C.). In addition, the “thermal stability, observation in words” value was “yellow/yellowbrown colour, with some degradation of the Ace part” in data set [1] (1 hour, 120° C.) and “pale yellow; with hplc some degradation of the Ace part” in data set [1] (70 hours, 70° C.). In data set [1], this molecule displayed a DKP content of 0.32 wt. %. The moisture content stood at 0.89% in data set [3] and 0.89 wt. % in data set [3] (table 1).

For the molecule `O=S(=O)(O)NC1CCCCC1` [cyclamate-Ca], the moisture content result in data set [5] is recorded as “up to 9%”.

Regarding `COC(=O)[C@H](Cc1ccccc1)NC(=O)[C@@H](N)CC(=O)O.O=C1NS(=O)(=O)c2ccccc21` [exp. 1a., 1:1 salt of APM and SacH] (H-Asp-Phe-OMe), the “Increase in DKP content” value in data set [1] (1 hour, 120° C.) came out at 0 wt. %; in data set [1] (70 hours, 70° C.), 0 wt. %. The molecule also had a DKP content in data set [1] of 0.01 wt. %. The Dissolution rate in data set [2] (0.1 wt.% product, stirring) was determined as 1 min. In addition, the moisture content is listed as 0.03% in data set [3] and 0.03 wt. % in data set [3] (table 1).

In the case of `COC(=O)[C@H](Cc1ccccc1)NC(=O)[C@@H](N)CC(=O)O` [exp. 1b., 1:1 salt of APM and CycH] (H-Asp-Phe-OMe), the “Increase in DKP content” value in data set [1] (1 hour, 120° C.) is given as 0.14 wt. %. In data set [1], this molecule returned a DKP content of 0.18 wt. %. Also, the moisture content in data set [3] was determined as 0.16%; in data set [3] (table 1), 0.16 wt. %. Moreover, the “solubility of the sweetening salt” value in “Solubility in water” was “high solubility”.

Regarding `CC1=CC(=O)NS(=O)(=O)O1.COC(=O)[C@H](Cc1ccccc1)NC(=O)[C@@H](N)CC(=O)O` [exp. 2a., 1:1 salt of APM and acesulfamic acid] (H-Asp-Phe-OMe), the “Increase in DKP content” value in data set [1] (1 hour, 120° C.) came out at 0 wt. %; in data set [1] (70 hours, 70° C.), 0 wt. %. The molecule also yielded a DKP content in data set [1] of 0.01 wt. %. This molecule also came in with a Dissolution rate in data set [2] (0.1 wt.% product, stirring) of 1 min. In addition, the moisture content in data set [3] amounted to 0.11%; in data set [3] (table 1), 0.11 wt. %.

Take `CC1=CC(=O)NS(=O)(=O)O1.COC(=O)[C@H](Cc1ccccc1)NC(=O)[C@@H](N)CC(=O)O` [exp. 4a., 1:1 salt of APM and acesulfamic acid] (H-Asp-Phe-OMe): in data set [1] (1 hour, 120° C.), the “Increase in DKP content” value was 0 wt. % and the “thermal stability, observation in words” value was “fully stable, white product”. In data set [1], this molecule showed a DKP content of 0.01 wt. %. In data set [2] (0.1 wt.% product, stirring), this molecule had a Dissolution rate of 1 min. In data set [3], this molecule gave a moisture content of 0.12%. The moisture content in data set [3] (table 1) is listed as 0.12 wt. %.

On to `CC1=CC(=O)NS(=O)(=O)O1.COC(=O)[C@H](Cc1ccccc1)NC(=O)[C@@H](N)CC(=O)O` [exp. 4c., 1:1 salt of APM and acesulfamic acid] (H-Asp-Phe-OMe), for which the “Increase in DKP content” value in data set [1] (1 hour, 120° C.) stood at 0 wt. %; in data set [1] (70 hours, 70° C.), 0 wt. %. Also, the “thermal stability, observation in words” value in data set [1] (1 hour, 120° C.) was “fully stable, white product”. In data set [1], this molecule registered a DKP content of 0.01 wt. %. Further, the Dissolution rate in data set [2] (0.1 wt.% product, stirring) turned out to be 1 min. Further, the figures for the moisture content in data set [3] and in data set [3] (table 1) were 0.04% and 0.04 wt. %, respectively.

On to `O=C1NS(=O)(=O)c2ccccc21` [saccharin-Na, sodium 2,3-dihydro-3-oxobenzisosulfonazole], for which the moisture content result in data set [5] is recorded as “up to 15%”.
